Results from US11905286B2, “Diazabicyclooctanones as inhibitors of serine beta-lactamases” (priority 2018, dated 2024).
Converted amounts (≈) assume the structure as drawn. Counter-ions that a name gives are not always drawn. Like-named read-outs stand apart in the source and are kept apart here.

Experiments:
CTX-M15 = CTX-M15 (Escherichia coli, UniProt Q9EXV5); assay: In vitro enzyme inhibition assay (nitrocefin hydrolysis), CTX-M15; format: biochemical
Method: (§1) Compound dilution was performed in DMSO.

AmpC [1] = biological target: T1, AmpC (Enterobacter cloacae, UniProt P05364); assay: biochemical
T1 sequence (P05364 21-381): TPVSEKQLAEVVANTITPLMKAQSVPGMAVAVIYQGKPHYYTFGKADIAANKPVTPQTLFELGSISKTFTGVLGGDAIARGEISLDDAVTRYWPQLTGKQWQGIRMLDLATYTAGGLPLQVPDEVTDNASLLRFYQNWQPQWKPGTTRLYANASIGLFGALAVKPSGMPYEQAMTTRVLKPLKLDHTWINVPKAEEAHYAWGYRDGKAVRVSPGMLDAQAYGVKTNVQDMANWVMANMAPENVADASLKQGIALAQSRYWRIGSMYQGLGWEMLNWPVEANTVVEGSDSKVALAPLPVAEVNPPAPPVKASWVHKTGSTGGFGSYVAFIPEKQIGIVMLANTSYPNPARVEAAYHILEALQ

KPC-2 = KPC-2 (Klebsiella pneumoniae, UniProt Q9F663); assay: In vitro enzyme inhibition assay (nitrocefin hydrolysis), KPC-2; format: biochemical
Chain of KPC-2 (Q9F663 25-293 limits assumed): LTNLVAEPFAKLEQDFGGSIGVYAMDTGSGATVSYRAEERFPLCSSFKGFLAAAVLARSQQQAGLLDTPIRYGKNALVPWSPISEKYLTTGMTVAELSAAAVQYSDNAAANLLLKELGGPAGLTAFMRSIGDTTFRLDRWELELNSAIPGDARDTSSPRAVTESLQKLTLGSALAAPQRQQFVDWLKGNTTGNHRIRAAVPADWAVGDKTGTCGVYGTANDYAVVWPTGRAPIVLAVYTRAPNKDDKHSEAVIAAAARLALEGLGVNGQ
Method: as §1

OXA-48 = OXA-48 (Klebsiella pneumoniae, UniProt Q6XEC0); assay: In vitro enzyme inhibition assay (nitrocefin hydrolysis), OXA-48; format: biochemical
Chain of OXA-48 (Q6XEC0 23-265 limits assumed): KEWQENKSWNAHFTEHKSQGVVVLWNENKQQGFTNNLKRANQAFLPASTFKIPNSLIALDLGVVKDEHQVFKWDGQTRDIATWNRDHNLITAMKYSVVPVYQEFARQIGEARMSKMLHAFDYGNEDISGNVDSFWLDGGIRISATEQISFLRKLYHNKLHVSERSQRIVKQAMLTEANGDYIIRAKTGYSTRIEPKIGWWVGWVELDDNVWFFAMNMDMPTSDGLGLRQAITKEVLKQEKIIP
Method: as §1

[2] = tested on: NTBC091.1 (E. coli strain expressing KPC-2, TEM-1); assay: Meropenem potentiation, broth micro-dilution MIC, strain NTBC091.1; format: cell-based; conditions: for MIC mero + 4 μg/mL inhibitor (banded): NTBC091.1, MIC of meropenem with 4 μg/mL of the labelled inhibitor, band; for MIC of meropenem + compound compared with meropenem + avibactam: NTBC091.1
Method: (§4) The experiments were carried out using the ‘broth micro-dilution method’ according to the protocols M07-A8 established by the Clinical Laboratory Standards Institute (CLSI). […] After incubation for 18-20 hours in a heating chamber at 37° C., the growth inhibition was evaluated by the absence of any bacterial development.
(§5) Compounds of the invention were tested at concentrations of 4 μg/mL.

[3] = tested on: NTBC093 (E. cloacae strain expressing KPC-2, TEM-1); assay: Meropenem potentiation, broth micro-dilution MIC, strain NTBC093; conditions: for MIC: Enterobacter cloacae, read-out: MIC mero + 4 μg/mL inhibitor
Method: as §4, §5

AmpC [4] = biological target: T1, AmpC; conditions: read-out: Amp-C mean IC50 (banded); nitrocefin 100 μM, band
[5] = tested on: NTBC096.1 (K. pneumoniae strain expressing OXA-181 and SHV-11); assay: Meropenem potentiation, broth micro-dilution MIC, strain NTBC096.1; format: cell-based; conditions: for MIC: Klebsiella pneumoniae, read-out: MIC mero + 4 μg/mL inhibitor
Method: as §4, §5

[6] = tested on: NTBC189 (K. pneumoniae strain expressing TEM-OSBL(b), CTX-M-14, OXA-48(c)); assay: Meropenem potentiation, broth micro-dilution MIC, strain NTBC189; conditions: for MIC: Klebsiella pneumoniae, read-out: MIC mero + 4 μg/mL inhibitor
Method: as §4, §5

[7] = tested on: OXA-expressing clinical strain of Klebsiella pneumoniae (AC00783); assay: MIC against strain used in thigh model, AC00783; format: cell-based
Excerpt: (§2) Compounds of the invention were further examined in animal efficacy models.

[8] = tested on: KPC-expressing clinical strain of Klebsiella pneumoniae (NR-48977); assay: Mouse thigh infection efficacy model, NR-48977; format: in vivo; conditions: mice, IV at 1, 3, 5 and 7 hours post infection with constant dose of meropenem, 9 hours post infection
Method: as §2
(§3) Vehicle, meropenem alone or meropenem and a compound of the invention (Example 10) were administered by IV at 1, 3, 5 and 7 hours post infection. 9 hours post infection animals were sacrificed and the number of colony forming units (CFUs) was measured in order to quantify bacterial burden (colony forming units per gram thigh tissue, CFU/g).

[9] = tested on: OXA-expressing clinical strain of Acinetobacter baumannii (AC00445); assay: Mouse thigh infection efficacy model, AC00445; format: in vivo; conditions: mice, IV at 1, 3, 5 and 7 hours post infection with constant dose of meropenem, 9 hours post infection
Method: as §2, §3

[10] = tested on: larger panel of clinical strains of OXA positive enterobacteriaceae; assay: Cumulative MIC, larger panel of clinical strains of OXA positive enterobacteriaceae (FIG. 1B); conditions: meropenem + 4 μg/mL inhibitor
[11] = tested on: KPC-expressing clinical strain of Klebsiella pneumoniae (NR-48977); assay: MIC against strain used in thigh model, NR-48977; format: cell-based
Excerpt: as §2

[12] = tested on: clinical strains of KPC positive enterobacteriaceae; conditions: FIG. 2, meropenem + 4 μg/mL inhibitor
[13] = tested on: OXA-expressing clinical strain of Klebsiella pneumoniae (AC00783); assay: Mouse thigh infection efficacy model, AC00783; format: in vivo; conditions: mice, IV at 1, 3, 5 and 7 hours post infection with constant dose of meropenem, 9 hours post infection
Method: as §2, §3

TEM-1 = TEM-1 (Escherichia coli, UniProt P62593); assay: In vitro enzyme inhibition assay (nitrocefin hydrolysis), TEM-1; format: biochemical; conditions: nitrocefin 100 μM, band; read-out: TEM-1 mean IC50 (banded)
Chain of TEM-1 (P62593 24-286 limits assumed): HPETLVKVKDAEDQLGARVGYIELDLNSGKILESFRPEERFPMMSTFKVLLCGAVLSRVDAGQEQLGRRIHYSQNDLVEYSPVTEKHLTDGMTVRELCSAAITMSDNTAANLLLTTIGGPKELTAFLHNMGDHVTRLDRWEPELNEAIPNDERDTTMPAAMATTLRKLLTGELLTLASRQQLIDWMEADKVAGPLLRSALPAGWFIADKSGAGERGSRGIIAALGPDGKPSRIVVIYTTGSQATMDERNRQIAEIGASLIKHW
Method: as §1

[14] = tested on: OXA-expressing clinical strain of Acinetobacter baumannii (AC00445); assay: MIC against strain used in thigh model, AC00445; format: cell-based
Excerpt: as §2

[15] = tested on: panel of 48 A. baumannii strains (OXA positive clinical isolates); assay: Cumulative MIC, panel of 48 A. baumannii strains (FIG. 3)
[16] = tested on: clinical strains of OXA positive enterobacteriaceae; assay: Cumulative MIC, panel of clinical strains of OXA positive enterobacteriaceae (FIG. 1A); conditions: antibiotic alone or clinical combination
[17] = tested on: NTBC099 (K. pneumoniae strain expressing KPC-3, SHV-11 and TEM-1); assay: Meropenem potentiation, broth micro-dilution MIC, strain NTBC099; conditions: Klebsiella pneumoniae, read-out: MIC mero + 4 μg/mL inhibitor
Method: as §4, §5

Chain of CTX-M15 (Q9EXV5 entry or part of it): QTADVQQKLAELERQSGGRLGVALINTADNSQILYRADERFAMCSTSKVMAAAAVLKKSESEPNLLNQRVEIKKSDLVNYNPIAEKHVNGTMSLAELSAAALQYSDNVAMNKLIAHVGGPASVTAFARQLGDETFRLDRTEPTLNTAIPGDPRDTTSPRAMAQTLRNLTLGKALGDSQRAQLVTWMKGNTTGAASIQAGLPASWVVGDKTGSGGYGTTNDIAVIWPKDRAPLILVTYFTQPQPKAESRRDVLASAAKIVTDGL

SMILES	IC50 (CTX-M15) [nM]	IC50 (AmpC [1]) [nM]	IC50 (KPC-2) [nM]	IC50 (OXA-48) [nM]	MIC mero + 4 μg/mL inhibitor (banded) [2]	further results
O=C1N2C[C@@H](CC[C@H]2COC(F)(F)F)N1OS(=O)(=O)[O-].[Na+] [Example 8, Sodium (2S, 5R)-7-oxo-2-[(trifluoromethoxy)methyl]-1,6-diazabicyclo[3.2.1]octan-6-yl sulphate]	100 to 200	40 to 60	< 10	200 to 300	(A) (1 μg/mL)	
NC(=O)[C@@H]1CC[C@@H]2CN1C(=O)N2OS(=O)(=O)O [Avibactam, avibactam, reference compound]					A (1 μg/mL)	MIC mero + 4 μg/mL inhibitor (banded) ([3]; NTBC093, MIC of meropenem with 4 μg/mL of the labelled inhibitor, band): A (1 μg/mL); MIC mero + 4 μg/mL inhibitor ([3]; NTBC093, MIC of meropenem with 4 μg/mL of the labelled inhibitor, value): 0.03 µg/mL; IC50 (CTX-M15; nitrocefin 50 μM, band, read-out: CTX-M15 mean IC50 (banded)): < 5 nM; IC50 (AmpC [4]): < 10 nM; MIC mero + 4 μg/mL inhibitor (banded) ([5]; NTBC096.1, MIC of meropenem with 4 μg/mL of the labelled inhibitor, band): B (MIC=1 or 2 μg/mL); MIC mero + 4 μg/mL inhibitor (banded) ([6]; NTBC189, MIC of meropenem with 4 μg/mL of the labelled inhibitor, band): A (1 μg/mL)
CC(F)(F)[C@@H]1CC[C@@H]2CN1C(=O)N2OS(=O)(=O)[O-].[Na+] [Example 5, Sodium (2S, 5R)-2-(1,1-difluoroethyl)-7-oxo-1,6-diazabicyclo[3.2.1]octan-6-yl sulphate]	5 to 20	40 to 60	> 10	20 to 100	(A) (1 μg/mL)	
O=C1N2C[C@@H](CC[C@H]2F)N1OS(=O)(=O)[O-].[Na+] [Example 10, Sodium (2R,5R)-2-fluoro-7-oxo-1,6-diazabicyclo[3.2.1]octan-6-yl sulfate]		10 to 40	> 10	200 to 300	(A) (1 μg/mL)	MIC (Meropenem + inhibitor at 4 μg/mL) [7]: 0.25 µg/mL; bacterial burden (colony forming units per gram thigh tissue) [8]: dose response; bacterial burden (colony forming units per gram thigh tissue) [9]: dose response; MIC of meropenem + compound compared with meropenem + avibactam ([3]; NTBC093): similar; MIC50 of meropenem with addition of 4 μg/mL of inhibitor [10]: 0.12 µg/mL; MIC90 of meropenem with addition of 4 μg/mL of inhibitor [10]: 0.5 µg/mL; MIC (Meropenem + inhibitor at 4 μg/mL) ([11]; NR-48977): 1 µg/mL; MIC50 of meropenem with addition of 4 μg/mL of inhibitor [12]: 0.12 µg/mL; bacterial burden (colony forming units per gram thigh tissue) [13]: dose response; IC50 (TEM-1): < 3 nM; MIC (Meropenem + inhibitor at 4 μg/mL) ([14]; AC00445): 4 µg/mL; % of the strains susceptible ([15]; FIG. 3, in the presence of 2 μg/mL of each inhibitor, inhibitor in combination with meropenem): around 50%; % of the strains susceptible ([15]; FIG. 3, in the presence of 16 μg/mL of each inhibitor, inhibitor in combination with meropenem): ~100%; MIC90 of meropenem with addition of 4 μg/mL of inhibitor ([15]; FIG. 3, meropenem + 4 μg/mL inhibitor): 8 µg/mL; MIC of meropenem + compound compared with meropenem + avibactam ([5]; NTBC096.1): lower; MIC of meropenem + compound compared with meropenem + avibactam [2]: lower; MIC of meropenem + compound compared with meropenem + avibactam ([6]; NTBC189): lower
O=C1N2C[C@@H](CC[C@@H]2F)N1OS(=O)(=O)[O-].[Na+] [Example 11, Sodium (2S, 5R)-2-fluoro-7-oxo-1,6-diazabicyclo [3.2.1]octan-6-yl sulfate]		> 60	> 10	> 300	(A) (1 μg/mL)	IC50 (TEM-1): > 10 nM
O=C1N2C[C@@H](CC[C@H]2SC(F)(F)F)N1OS(=O)(=O)[O-].[Na+] [Example 7, Sodium (2R, 5R)-7-oxo-2-[(trifluoromethyl)sulfanyl]-1,6-diazabicyclo[3.2.1]octan-6-yl sulphate]		40 to 60	> 10	200 to 300	(A) (1 μg/mL)	
O=C1N2C[C@@H](CC[C@H]2CF)N1OS(=O)(=O)[O-].[Na+] [Example 4, Sodium (2S, 5R)-2-(fluoromethyl)-7-oxo-1,6-diazabicyclo[3.2.1]octan-6-yl sulphate]	5 to 20	< 10	> 10	200 to 300	(A) (1 μg/mL)	
C[C@@H](O)[C@H]1C(=O)N2C(C(=O)O)=C(S[C@@H]3CN[C@H](C(=O)N(C)C)C3)[C@H](C)[C@H]12 [meropenem, reference compound]						MIC ([11]; Klebsiella pneumoniae, read-out: MIC (meropenem alone)): 64 µg/mL (≈ 167 µM); MIC ([14]; Acinetobacter baumannii, read-out: MIC (meropenem alone)): 64 µg/mL (≈ 167 µM); fraction of strains susceptible at an MIC of 1 μg/mL [16]: 0%; % of the strains susceptible ([15]; FIG. 3, in the presence of 2 μg/mL of each inhibitor, antibiotic alone or clinical combination): 0%
O=C1N2C[C@@H](CC[C@H]2C(F)(F)c2nccs2)N1OS(=O)(=O)[O-].[Na+] [Example 9, Sodium (2S, 5R)-2-[difluoro(1,3-thiazol-2-yl)methyl]-7-oxo-1,6-diazabicyclo[3.2.1]octan-6-yl sulphate]	20 to 100	< 10	< 10	200 to 300	(A) (1 μg/mL)	
O=C1N2C[C@@H](CC[C@H]2C(Cl)Cl)N1OS(=O)(=O)O [Example 3, Sodium (2S,5R)-2-(dichloromethyl)-7-oxo-1,6-diazabicyclo[3.2.1]octan-6-yl sulfate]	20 to 100	40 to 60	< 10	100 to 200	(A) (1 μg/mL)	
O=C1N2C[C@@H](CC[C@H]2C(F)F)N1OS(=O)(=O)O [Example 2, Sodium (2S, 5R)-7-oxo-2-(difluoromethyl)-1,6-diazabicyclo[3.2.1]octan-6-yl sulfate]	5 to 20		< 10	20 to 100	(A) (1 μg/mL)	MIC [17]: 1 µg/mL; MIC [3]: 0.06 µg/mL; MIC [5]: 4 µg/mL; MIC of meropenem + compound compared with meropenem + avibactam [2]: lower; MIC [6]: 2 µg/mL
O=C1N2C[C@@H](CC[C@H]2Cl)N1OS(=O)(=O)[O-].[Na+] [Example 12, Sodium (2R,5R)-2-chloro-7-oxo-1,6-diazabicyclo[3.2.1]octan-6-yl sulfate]		< 10	> 10	> 300	(A) (1 μg/mL)	IC50 (TEM-1): < 3 nM; MIC of meropenem + compound compared with meropenem + avibactam [2]: lower
O=C1N2C[C@@H](CC[C@H]2CCl)N1OS(=O)(=O)[O-].[Na+] [Example 6, Sodium (2S, 5R)-2-(chloromethyl)-7-oxo-1,6-diazabicyclo[3.2.1]octan-6-yl sulphate]		10 to 40	> 10	200 to 300	(A) (1 μg/mL)	
O=C1N2C[C@@H](CC[C@H]2C(F)(F)F)N1OS(=O)(=O)O [Example 1, Sodium (2S, 5R)-7-oxo-2-(trifluoromethyl)-1,6-diazabicyclo[3.2.1]octan-6-yl sulfate]	5 to 20		< 10	< 20	(A) (1 μg/mL)	MIC [3]: 0.06 µg/mL; MIC [5]: 4 µg/mL; MIC of meropenem + compound compared with meropenem + avibactam [2]: lower; MIC [6]: 2 µg/mL
